Results from ChEMBL document CHEMBL5518219, “Development of a Series of Pyrrolopyridone MAT2A Inhibitors” (J Med Chem, 2024).
≈ marks a conversion by molar mass, not a printed value. Calls of active or inactive are those of the source. The rule behind the calls is not given here.

How the values were obtained:
[1] = Lipophilicity, logD of compound at pH 7.4 by shake flask method; format: physicochemical; settings: buffer
[2] = Metabolic stability in rat hepatocytes assessed as intrinsic clearance measured per 10^6 cells; format: ADME, cell-based, Hepatocyte
[3] = Metabolic stability in human liver microsomes assessed as intrinsic clearance; format: ADME, Microsome
[4] = target: S-adenosylmethionine synthase isoform type-2 (Homo sapiens, UniProt P31153); assay: Binding affinity to MAT2a (unknown origin) assessed as dissociation constant by ITC analysis
PXR = target: T1, PXR (Homo sapiens, UniProt O75469); assay: Activation of human PXR assessed as fold change at 10 uM relative to DMSO; format: toxicity; settings: read-out: FC
T1 sequence (O75469 whole entry): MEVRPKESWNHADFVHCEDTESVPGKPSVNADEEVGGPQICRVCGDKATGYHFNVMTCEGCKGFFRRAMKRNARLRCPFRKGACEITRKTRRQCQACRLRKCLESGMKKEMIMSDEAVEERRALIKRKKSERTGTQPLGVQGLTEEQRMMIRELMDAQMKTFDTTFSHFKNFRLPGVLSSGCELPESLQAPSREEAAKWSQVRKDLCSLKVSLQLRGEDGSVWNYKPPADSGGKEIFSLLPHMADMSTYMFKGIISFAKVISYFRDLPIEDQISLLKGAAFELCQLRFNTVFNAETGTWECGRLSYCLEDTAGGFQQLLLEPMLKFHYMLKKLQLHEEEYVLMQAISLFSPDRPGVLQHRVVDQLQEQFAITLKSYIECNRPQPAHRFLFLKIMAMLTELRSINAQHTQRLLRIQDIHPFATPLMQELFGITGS

[5] = Apparent permeability in human Caco-2 cells at 10 uM; format: ADME, cell-based
[6] = Aqueous solubility in phosphate buffer at pH 7.4 measured after 24 hrs; format: physicochemical
[7] = Plasma protein binding in mouse assessed as free fraction by equilibrium dialysis; format: ADME, cell-free
[8] = Plasma protein binding in rat assessed as free fraction by equilibrium dialysis; format: ADME, cell-free
[9] = Plasma protein binding in dog assessed as free fraction by equilibrium dialysis; format: ADME, cell-free, Canis lupus familiaris
[10] = Plasma protein binding in human assessed as free fraction by equilibrium dialysis; format: ADME, cell-free
[11] = Intrinsic clearance in mouse hepatocytes measured per 10^6 cells; format: ADME, cell-based, Hepatocyte; settings: read-out: CLH
[12] = Volume of distribution at steady state in mouse at 1 mg/kg, po or 0.5 mg/kg, iv; format: ADME, organism-based; settings: in vivo
[13] = Half life in mouse at 1 mg/kg, po or 0.5 mg/kg, iv; format: ADME, organism-based; settings: in vivo
[14] = Oral bioavailability in mouse at 1 mg/kg; format: ADME, organism-based; settings: in vivo
[15] = Volume of distribution at steady state in rat at 1 mg/kg, po or 0.5 mg/kg, iv; format: ADME, organism-based; settings: in vivo
[16] = Half life in rat at 1 mg/kg, po or 0.5 mg/kg, iv; format: ADME, organism-based; settings: in vivo
[17] = Oral bioavailability in rat at 1 mg/kg; format: ADME, organism-based; settings: in vivo
[18] = Solubility in FaSSIF at pH 6.5; format: ADME
[19] = Solubility in FeSSIF at pH 5; format: ADME
[20] = Solubility in simulated gastric fluid at pH 1; format: ADME
[21] = Unbound fraction in nude mouse plasma at 30 mg/kg, po measured after 24 hrs; format: ADME, organism-based
[22] = Unbound brain-to-plasma concentration ratio in rat; format: ADME, cell-free; settings: read-out: K(p,uu,brain)
NCI-H441 = assay: Antiproliferative activity against human NCI-H441 cells harboring MTAP knockout; format: functional, cell-based
HCT116-MTAP null = assay: Antitumor activity against human HCT116-MTAP null cells xenografted in NCR nude mouse assessed as reduction in tumor volume at 20 mg/kg, po administered twice daily for 24 days and measured twice weekly; format: functional, organism-based; settings: time 24.0 day
cells = settings: Homo sapiens, HCT116-MTAP null, 120 h, read-out: pGI50 (converted)
animal or person [23] = settings: Mus musculus, NCR nude, HCT116-MTAP null, po, read-out: INH
animal or person [24] = settings: Mus musculus, NCR nude, HCT116-MTAP null, po, read-out: INH; remark: listed apart in the source
HCT-116 = assay: cells; settings: Homo sapiens, HCT-116, 120 h, read-out: pGI50 (converted)

Chain of S-adenosylmethionine synthase isoform type-2 (P31153 whole entry, canonical isoform): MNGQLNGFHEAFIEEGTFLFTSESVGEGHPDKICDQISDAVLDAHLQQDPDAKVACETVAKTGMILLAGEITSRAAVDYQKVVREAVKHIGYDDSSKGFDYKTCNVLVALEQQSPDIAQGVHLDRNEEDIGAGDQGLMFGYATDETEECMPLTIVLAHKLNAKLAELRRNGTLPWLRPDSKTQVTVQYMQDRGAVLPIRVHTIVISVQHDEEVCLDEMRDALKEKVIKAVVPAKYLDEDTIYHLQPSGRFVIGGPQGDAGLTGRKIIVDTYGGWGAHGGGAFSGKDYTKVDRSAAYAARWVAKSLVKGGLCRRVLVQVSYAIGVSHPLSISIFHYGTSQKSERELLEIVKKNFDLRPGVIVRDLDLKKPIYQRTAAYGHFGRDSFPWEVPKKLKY

CCc1ccc(-n2c(=O)c(-c3ccc4nn(C)cc4c3)cc3[nH]nc(C4CC4)c32)cn1
logD [1]: 2.4 | hepatocyte CLint [2]: 19 µL/min/1e6 cells

COc1ccc(-c2c3c(C4CC4)n[nH]c3cc[n+]2[O-])cc1
logD [1]: 1.3 | microsomal CLint [3]: < 3 µL/min/mg | hepatocyte CLint [2]: < 1 µL/min/1e6 cells

N#Cc1cc2[nH]nc(C3CC3)c2c(-c2ccc(OC(F)F)cc2)n1
logD [1]: 3.9 | microsomal CLint [3]: < 3 µL/min/mg | hepatocyte CLint [2]: 5 µL/min/1e6 cells

Cn1nnc2ccc(-c3cc4[nH]nc(C5CC5)c4n(-c4ccc(OC(F)F)cc4)c3=O)cc21
logD [1]: 3.1 | hepatocyte CLint [2]: < 1 µL/min/1e6 cells

Cn1cc2cc(-c3cc4[nH]nc([C@@H]5CCOC5)c4n(-c4ccc(OC(F)F)cc4)c3=O)ccc2n1
logD [1]: 2.5 | hepatocyte CLint [2]: 4 µL/min/1e6 cells

COc1ccc(-c2cc3[nH]nc(C4CC4)c3n(-c3ccc(OC(F)F)cc3)c2=O)cc1
logD [1]: 4 | hepatocyte CLint [2]: 7 µL/min/1e6 cells

Cc1ccc(-n2c(=O)c(-c3ccc4nn(C)cc4c3)cc3[nH]nc(C4CC4)c32)nc1
logD [1]: 2.2 | hepatocyte CLint [2]: 5 µL/min/1e6 cells

Cc1ccc(-n2c(=O)c(-c3ccc4nn(C)cc4c3)cc3[nH]nc(C4CC4)c32)cn1
logD [1]: 2.2 | hepatocyte CLint [2]: < 1 µL/min/1e6 cells

Cc1ccc(-n2c(=O)c(-c3ccc4nn(C)cc4c3)cc3[nH]nc(C4CC4)c32)cc1
logD [1]: 3.3 | hepatocyte CLint [2]: 25 µL/min/1e6 cells

CN(C)CCc1nnc2cc(-c3ccccc3)c3cc(Cl)ccc3n12
Kd [4]: 170 nM

Cn1cc2cc(-c3cc4[nH]nc(C5CC5)c4n(-c4ccc(Cl)cc4)c3=O)ccc2n1
logD [1]: 3.4 | hepatocyte CLint [2]: 5 µL/min/1e6 cells

Cc1ncc(-n2c(=O)c(-c3ccc4nn(C)cc4c3)cc3[nH]nc(C4CC4)c32)cn1
logD [1]: 1.6 | hepatocyte CLint [2]: < 1 µL/min/1e6 cells

COc1ccc(-c2nccc3[nH]nc(C4CC4)c23)cc1
logD [1]: 3.3 | microsomal CLint [3]: 89 µL/min/mg | hepatocyte CLint [2]: 38 µL/min/1e6 cells

Cc1n[nH]c2cc(-c3ccc4nn(C)cc4c3)c(=O)n(-c3ccc(OC(F)F)cc3)c12
logD [1]: 3 | hepatocyte CLint [2]: < 1 µL/min/1e6 cells

COc1ccc(-n2cc3cnc(NCC(F)(F)F)nc3c(-c3ccc(Br)cc3)c2=O)cc1
fold induction at 10 µM (PXR): 25

COc1ccc(-c2cc3[nH]nc(C4CC4)c3c(-c3ccc(OC(F)F)cc3)n2)cc1
logD [1]: > 4.5 | microsomal CLint [3]: 21 µL/min/mg | hepatocyte CLint [2]: 26 µL/min/1e6 cells

[O-][n+]1ccc2[nH]nc(C3CC3)c2c1-c1ccc(OC(F)F)cc1
logD [1]: 1.6 | microsomal CLint [3]: < 3 µL/min/mg | hepatocyte CLint [2]: < 1 µL/min/1e6 cells

COc1ccc(-n2c(=O)c(-c3ccc4nn(C)cc4c3)cc3[nH]nc(C4CC4)c32)cc1
logD [1]: 2.8 | hepatocyte CLint [2]: 3 µL/min/1e6 cells

FC(F)Oc1ccc(-c2nccc3[nH]nc(C4CC4)c23)cc1
logD [1]: 3.8 | microsomal CLint [3]: 54 µL/min/mg | hepatocyte CLint [2]: 20 µL/min/1e6 cells

Cn1cc2cc(-c3cc4[nH]nc(C5CC5)c4n(-c4ccc(OC(F)F)cn4)c3=O)ccc2n1
logD [1]: 2.5 | hepatocyte CLint [2]: 2 µL/min/1e6 cells

O=c1c(-c2ccc(O)cc2)cc2[nH]nc(C3CC3)c2n1-c1ccc(OC(F)F)cc1
logD [1]: 3.4 | hepatocyte CLint [2]: 2 µL/min/1e6 cells

Cn1cc2ccc(-c3cc4[nH]nc(C5CC5)c4n(-c4ccc(OC(F)F)cc4)c3=O)cc2n1
logD [1]: 3.4 | hepatocyte CLint [2]: 25 µL/min/1e6 cells

Cn1cc2cc(-c3cc4[nH]nc(C5CC5)c4n(-c4ccc(CCO)cc4)c3=O)ccc2n1
logD [1]: 2.3 | hepatocyte CLint [2]: 4 µL/min/1e6 cells

Cc1nc2ccc(-c3cc4[nH]nc(C5CC5)c4n(-c4ccc(OC(F)F)cc4)c3=O)cc2n1C
logD [1]: 3.5 | hepatocyte CLint [2]: < 2 µL/min/1e6 cells

COc1ccc(-c2cc3[nH]nc(C4CC4)c3n(-c3ccc(OC(F)F)cc3)c2=O)cn1
logD [1]: 3.5 | hepatocyte CLint [2]: 3 µL/min/1e6 cells

COc1ccc(-c2cc3[nH]nc(C4CC4)c3n(-c3ccc(OC(F)F)cc3)c2=O)nc1
logD [1]: 3.4 | hepatocyte CLint [2]: 7 µL/min/1e6 cells

C[C@@H](O)c1ccc(-n2c(=O)c(-c3ccc4nn(C)cc4c3)cc3[nH]nc(C4CC4)c32)cc1
logD [1]: 2.4 | hepatocyte CLint [2]: 5 µL/min/1e6 cells

CNc1ccc(-n2c(=O)c(-c3ccc4nn(C)cc4c3)cc3[nH]nc(C4CC4)c32)cn1
logD [1]: 2.3 | hepatocyte CLint [2]: < 1 µL/min/1e6 cells

Cn1cc2cc(-c3cc4[nH]nc(C5CC5)c4n(-c4ccc(CO)cc4)c3=O)ccc2n1
logD [1]: 2.2 | hepatocyte CLint [2]: 35 µL/min/1e6 cells

Cn1cc(-c2cc3[nH]nc(C4CC4)c3n(-c3ccc(OC(F)F)cc3)c2=O)ccc1=O
logD [1]: 2 | hepatocyte CLint [2]: < 1 µL/min/1e6 cells

Cn1cc2cc(-c3cc4[nH]nc(C5CC5)c4n(-c4ccc(OC(F)F)cc4)c3=O)ccc2n1
logD [1]: 3.4 | hepatocyte CLint [2]: < 1 µL/min/1e6 cells | Papp at 10 µM [5]: 9.4 ×10⁻⁶ cm/s | solubility at 24 h [6]: 3.2 µM (≈ 1.43 µg/mL) | fraction unbound [7]: 0.03 | fraction unbound [8]: 0.006 | fraction unbound [9]: 0.12 | fraction unbound [10]: 0.032 | hepatocyte CLint [11]: 1.4 µL/min/1e6 cells | Vdss [12]: 5.5 L/kg | half-life [13]: 3 h | bioavailability [14]: 100% | Vdss [15]: 0.8 L/kg | half-life [16]: 6.3 h | bioavailability [17]: 100% | solubility [18]: 3.3 µM (≈ 1.48 µg/mL) | solubility [19]: 11.2 µM (≈ 5.01 µg/mL) | solubility [20]: 70.4 µM (≈ 31.5 µg/mL) | fraction unbound at 24 h [21]: 0.029 | Kp uu [22]: 0.03 | Activity (NCI-H441): Active | Activity (HCT116-MTAP null): Active | GI50 (cells): 79.4 nM | inhibition in vivo at 20 mg/kg (animal or person [23]): > 90% | inhibition in vivo at 20 mg/kg (animal or person [24]): > 90%

O=c1c(-c2ccccc2)cc2[nH]nc(C3CC3)c2n1-c1ccc(OC(F)F)cc1
logD [1]: 4 | hepatocyte CLint [2]: 14 µL/min/1e6 cells

O=c1ccc2[nH]nc(C3CC3)c2n1-c1ccc(OC(F)F)cc1
logD [1]: 2.1 | microsomal CLint [3]: < 3 µL/min/mg | hepatocyte CLint [2]: 1 µL/min/1e6 cells

Cn1cc2cc(-c3cc4[nH]nc(C5CC5)c4n(-c4ccc(OC(F)F)nc4)c3=O)ccc2n1
logD [1]: 3 | hepatocyte CLint [2]: < 1 µL/min/1e6 cells

CCc1n[nH]c2cc(-c3ccc4nn(C)cc4c3)c(=O)n(-c3ccc(OC(F)F)cc3)c12
logD [1]: 3.1 | hepatocyte CLint [2]: < 1 µL/min/1e6 cells

COc1ccc(-c2c(Nc3ccccn3)[nH]c3c(C4=CCCCC4)c(-c4ccccc4)nn3c2=O)cc1
GI50 (cells): 501 nM | GI50 (HCT-116): 1580 nM
